Values of other authors, collected in patent publication US20260355142A1, “AMORPHOUS OTE[…] COMPOSITIONS AND USES THEREOF AND DOSAGE REGIMENS FOR OTENAPROXESUL” (ANTIBE THERAPEUTICS INC., priority 2022, published 2026).

Details: efficacious dose of naproxen, known in the art; cited from earlier work

For COc1ccc2cc([C@H](C)C(=O)O)ccc2c1 [naproxen, (2S)-2-(6-methoxynaphthalen-2-yl) propanoic acid], the “patients with noticeable GI injury” value is given as “approximately 30%”.
